Assay results: patent publication US8575156B2, “Cyclic inhibitors of 11β-hydroxysteroid dehydrogenase 1” (Vitae Pharmaceuticals, Inc., priority 2007, dated 2013)
Like-named read-outs stand apart in the source and are kept apart here.

Target: 11β-HSD1 (Homo sapiens, UniProt P28845)
Test: biochemical
Conditions: for IC50: IC50 Range, Biological Test Example 1, microsomes from CHO cells overexpressing human 11β-HSD1; for inhibition at 0.1 µM: read-out: Average % inhibition at 100 nM, Biological Test Example 1
[1] = read-out: Average % inhibition at 111.1 nM, Biological Test Example 1, 111.1 nM compound

Sequence of 11β-HSD1 (P28845 whole entry): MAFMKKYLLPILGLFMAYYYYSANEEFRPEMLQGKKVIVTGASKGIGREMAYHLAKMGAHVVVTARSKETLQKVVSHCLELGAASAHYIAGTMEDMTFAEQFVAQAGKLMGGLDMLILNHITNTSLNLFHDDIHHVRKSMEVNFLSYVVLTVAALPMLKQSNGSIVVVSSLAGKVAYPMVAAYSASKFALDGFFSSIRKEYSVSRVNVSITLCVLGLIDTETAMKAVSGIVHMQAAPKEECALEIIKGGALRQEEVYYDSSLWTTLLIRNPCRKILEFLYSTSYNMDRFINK

O=C1OC(CCCO)(c2ccc(F)cc2)CCN1Cc1c(F)cccc1F (centres unmarked) [EXAMPLE 348, 3-(2,6-difluorobenzyl)-6-(4-fluorophenyl)-6-(3-hydroxypropyl)-1,3-oxazinan-2-one]
IC50: < 100 nM | inhibition at 0.1 µM (100 nM): 48.9%

CC[C@@H](c1ccc(Br)cc1)N1CC[C@](CC(O)CO)(c2ccccc2)OC1=O (single isomer, unassigned) [EXAMPLE 239 Isomer 1]
IC50: < 100 nM | inhibition at 0.1 µM (100 nM compound): 91.5%

C[C@@H](c1ccc(Cl)cc1F)N1CC[C@](CC(C)(C)C(N)=O)(c2ccc(F)cc2)OC1=O [EXAMPLE 578, 3-((R)-3-((S)-1-(4-chloro-2-fluorophenyl)ethyl)-6-(4-fluorophenyl)-2-oxo-1,3-oxazinan-6-yl)-2,2-dimethylpropanamide]
IC50: < 100 nM | inhibition at 0.1 µM (100 nM): 97.7%

CC(C)(C)OC(=O)N1CCC[C@H](N2CC[C@](CCC(N)=O)(c3ccc(F)cc3)OC2=O)C1 [EXAMPLE 339, (S)-tert-butyl 3-((R)-6-(3-amino-3-oxopropyl)-6-(4-fluorophenyl)-2-oxo-1,3-oxazinan-3-yl)piperidine-1-carboxylate]
IC50: < 100 nM | inhibition at 0.1 µM (100 nM): 65.9%

C[C@@H](c1ccc(OCC(F)(F)F)cc1)N1CC[C@](CCC(N)=O)(c2ccc(F)cc2)OC1=O [EXAMPLE 505, 3-((R)-6-(4-fluorophenyl)-2-oxo-3-((S)-1-(4-(2,2,2-trifluoroethoxy)phenyl)ethyl)-1,3-oxazinan-6-yl)propanamide]
IC50: < 100 nM | inhibition at 0.1 µM (100 nM): 96.3%

C=CC[C@@]1(c2ccc(F)cc2)CCN([C@@H](C)c2ccc(-c3ccc(F)cc3F)cc2)C(=O)O1 (single isomer, unassigned) [EXAMPLE 111 Isomer 1]
IC50: < 100 nM | inhibition at 0.1111 µM [1]: 90.9%

O=C1OC(CCO)(c2ccccc2F)CCN1c1ccc(Cl)c(-c2ccc(F)cc2F)n1 (centres unmarked) [EXAMPLE 135, 3-(5-chloro-6-(2,4-difluorophenyl)pyridin-2-yl)-6-(2-fluorophenyl)-6-(2-hydroxyethyl)-1,3-oxazinan-2-one]
IC50: < 100 nM | inhibition at 0.1 µM (100 nM compound): 88.9% | inhibition at 0.1111 µM [1]: 93.8%

C[C@@H](c1ccc(-c2ccc(F)cc2)cc1)N1CC[C@](CCNCCF)(c2ccc(F)cc2)OC1=O [EXAMPLE 463, (R)-3-((S)-1-(4′-fluorobiphenyl-4-yl)ethyl)-6-(2-(2-fluoroethylamino)ethyl)-6-(4-fluorophenyl)-1,3-oxazinan-2-one]
IC50: < 100 nM | inhibition at 0.1 µM (100 nM): 81.3%

C[C@@H](c1ccccc1)N1CCC(C)(c2ccccc2)OC1=O (single isomer, unassigned) [EXAMPLE 82 Isomer 1]
IC50: < 100 nM | inhibition at 0.1111 µM [1]: 87.6%

CC1(c2ccccc2)CCN(c2cccc(-c3ccccc3NS(C)(=O)=O)c2)C(=O)O1 (centres unmarked) [EXAMPLE 45, N-(3′-(6-methyl-2-oxo-6-phenyl-1,3-oxazinan-3-yl)biphenyl-2-yl)methanesulfonamide]
IC50: 100 to 1000 nM | inhibition at 0.1111 µM [1]: 31.2%

CN(C)S(=O)(=O)c1cccc(-c2cccc(N3CCC(C)(c4ccccc4)OC3=O)c2)c1 (centres unmarked) [EXAMPLE 14, N,N-dimethyl-3′-(6-methyl-2-oxo-6-phenyl-1,3-oxazinan-3-yl)biphenyl-3-sulfonamide]
IC50: 100 to 1000 nM | inhibition at 0.1111 µM [1]: 21.9%

CC(=O)c1ccc(-c2ccc([C@H](C)N3CC[C@](CCCO)(c4ccccc4)OC3=O)cc2)s1 [EXAMPLE 249, (R)-3-((S)-1-(4-(5-acetylthiophen-2-yl)phenyl)ethyl)-6-(3-hydroxypropyl)-6-phenyl-1,3-oxazinan-2-one]
IC50: < 100 nM | inhibition at 0.1 µM (100 nM compound): 96.3%

C=CCC1(c2ccc(F)cc2)CCN([C@@H](C)c2ccc(C)cc2)C(=O)O1 (single isomer, unassigned) [EXAMPLE 189 Isomer 1]
IC50: < 100 nM | inhibition at 0.1 µM (100 nM compound): 95.2%

C=CC[C@]1(c2ccc(F)cc2)CCN([C@@H](C)c2cccc(C(C)(C)O)c2)C(=O)O1 [EXAMPLE 364, (R)-6-allyl-6-(4-fluorophenyl)-3-((S)-1-(3-(2-hydroxypropan-2-yl)phenyl)ethyl)-1,3-oxazinan-2-one]
IC50: < 100 nM | inhibition at 0.1 µM (100 nM): 66.3%

C[C@@H](c1ccc(-c2ccc(F)cc2F)cc1)N1CC[C@](CC(O)CO)(c2ccc(F)cc2)OC1=O (single isomer, unassigned) [EXAMPLE 52 Isomer 1]
IC50: < 100 nM | inhibition at 0.1 µM (100 nM compound): 92.8%

COC(=O)c1ccc(-c2cccc(N3CCC(C)(c4ccccc4)OC3=O)c2)cc1 (centres unmarked) [EXAMPLE 46, methyl 3′-(6-methyl-2-oxo-6-phenyl-1,3-oxazinan-3-yl)biphenyl-4-carboxylate]
IC50: 100 to 1000 nM | inhibition at 0.1111 µM [1]: 46.4%

CC(C#N)C[C@]1(c2ccc(F)cc2)CCN([C@@H](C)c2ccc(Br)cc2)C(=O)O1 (stereo partly drawn) [EXAMPLE 520, 3-((R)-3-((S)-1-(4-bromophenyl)ethyl)-6-(4-fluorophenyl)-2-oxo-1,3-oxazinan-6-yl)-2-methylpropanenitrile]
IC50: < 100 nM | inhibition at 0.1 µM (100 nM): 98%

COc1cccc([C@H](C)N2CCC(C)(c3ccccc3)OC2=O)c1 (stereo partly drawn) [EXAMPLE 84, 3-((S)-1-(3-methoxyphenyl)ethyl)-6-methyl-6-phenyl-1,3-oxazinan-2-one]
IC50: < 100 nM | inhibition at 0.1111 µM [1]: 94.6%

CC1(c2ccccc2)CCN(c2cccc(-c3ccccc3CO)c2)C(=O)O1 (centres unmarked) [EXAMPLE 35, 3-(2′-(hydroxymethyl)biphenyl-3-yl)-6-methyl-6-phenyl-1,3-oxazinan-2-one]
IC50: 100 to 1000 nM | inhibition at 0.1111 µM [1]: 26.7%

C[C@@H](C1CCCCC1)N1CC[C@](CC(O)CO)(c2ccc(F)cc2)OC1=O (single isomer, unassigned) [EXAMPLE 197 Isomer 1]
IC50: < 100 nM | inhibition at 0.1 µM (100 nM compound): 90.4%

COc1cccc([C@H](C)N2CCC(C)(c3ccccc3)OC2=O)c1 (single isomer, unassigned) [EXAMPLE 84 Isomer 1]
IC50: < 100 nM | inhibition at 0.1111 µM [1]: 74.8%

COC(=O)c1ccc([C@H](C)N2CC[C@](CCCO)(c3ccc(F)cc3)OC2=O)cc1 [EXAMPLE 127, Methyl 4-((S)-1-((R)-6-(4-fluorophenyl)-6-(3-hydroxypropyl)-2-oxo-1,3-oxazinan-3-yl)ethyl)benzoate]
IC50: < 100 nM | inhibition at 0.1 µM (100 nM compound): 86.3%

C[C@@H](c1ccc(Cl)cc1)N1CC[C@](CCO)(c2ccc(F)cc2)OC1=O [EXAMPLE 380, (S)-3-((S)-1-(4-chlorophenyl)ethyl)-6-(4-fluorophenyl)-6-(2-hydroxyethyl)-1,3-oxazinan-2-one]
IC50: < 100 nM | inhibition at 0.1 µM (100 nM): 97.2%

CC1(c2ccccc2)CCN(Cc2cccc(Br)c2)C(=O)O1 (centres unmarked) [EXAMPLE 71, 3-(3-bromobenzyl)-6-methyl-6-phenyl-1,3-oxazinan-2-one]
IC50: 100 to 1000 nM

O=C1OC(CCCO)(c2ccc(F)cc2)CCN1Cc1cc(Cl)ccc1Cl (centres unmarked) [EXAMPLE 345, 3-(2,5-dichlorobenzyl)-6-(4-fluorophenyl)-6-(3-hydroxypropyl)-1,3-oxazinan-2-one]
IC50: < 100 nM | inhibition at 0.1 µM (100 nM): 74.7%

CC(C)NS(=O)(=O)c1ccc(-c2cccc(N3CCC(C)(c4ccccc4)OC3=O)c2)cc1 (centres unmarked) [EXAMPLE 13, N-isopropyl-3′-(6-methyl-2-oxo-6-phenyl-1,3-oxazinan-3-yl)biphenyl-4-sulfonamide]
IC50: 100 to 1000 nM | inhibition at 0.1111 µM [1]: 19.2%

C=CC[C@]1(c2ccc(F)cc2)CCN([C@@H](C)c2ccc(C3CC3)cc2)C(=O)O1 [EXAMPLE 123, (R)-6-allyl-3-((S)-1-(4-cyclopropylphenyl)ethyl)-6-(4-fluorophenyl)-1,3-oxazinan-2-one]
IC50: < 100 nM | inhibition at 0.1111 µM [1]: 97.6%

C[C@@H](c1ccc(Br)cc1)N1CC[C@](CCCNS(C)(=O)=O)(c2ccccc2)OC1=O [EXAMPLE 394, N-(3-((R)-3-((S)-1-(4-bromophenyl)ethyl)-2-oxo-6-phenyl-1,3-oxazinan-6-yl)propyl)methanesulfonamide]
IC50: < 100 nM | inhibition at 0.1 µM (100 nM): 99.1%

C[C@@H](c1ccc(C(=O)O)cc1)N1CC[C@](CCCO)(c2ccc(F)cc2)OC1=O [EXAMPLE 142, 4-((S)-1-((R)-6-(4-fluorophenyl)-6-(3-hydroxypropyl)-2-oxo-1,3-oxazinan-3-yl)ethyl)benzoic acid]
IC50: 100 to 1000 nM | inhibition at 0.1 µM (100 nM compound): 34.4% | inhibition at 0.1111 µM [1]: 27.4%

C=CC[C@]1(c2ccc(F)cc2)CCN([C@@H](C)c2cccc(C(=O)OC)c2)C(=O)O1 [EXAMPLE 362, Methyl 3-((S)-1-((R)-6-allyl-6-(4-fluorophenyl)-2-oxo-1,3-oxazinan-3-yl)ethyl)benzoate]
IC50: < 100 nM | inhibition at 0.1 µM (100 nM): 93.4%

CC(=O)NC(C)(C)C[C@]1(c2ccc(F)cc2)CCN([C@@H](C)c2ccc(Br)cc2)C(=O)O1 [EXAMPLE 626, N-(1-((S)-3-((S)-1-(4-bromophenyl)ethyl)-6-(4-fluorophenyl)-2-oxo-1,3-oxazinan-6-yl)-2-methylpropan-2-yl)acetamide]
IC50: < 100 nM | inhibition at 0.1 µM (100 nM): 94.8%

C[C@@H](c1ccc(-c2ccc(F)cc2)cc1)N1CC[C@](CCN2CC[C@@H](F)C2)(c2ccc(F)cc2)OC1=O [EXAMPLE 466, (R)-3-((S)-1-(4′-fluorobiphenyl-4-yl)ethyl)-6-(4-fluorophenyl)-6-(2-((R)-3-fluoropyrrolidin-1-yl)ethyl)-1,3-oxazinan-2-one]
IC50: < 100 nM | inhibition at 0.1 µM (100 nM): 55.3%

CC1(c2ccccc2)CCN(c2ccnc(-c3cccc(F)c3)n2)C(=O)O1 (centres unmarked) [EXAMPLE 56, 3-(2-(3-fluorophenyl)pyrimidin-4-yl)-6-methyl-6-phenyl-1,3-oxazinan-2-one]
IC50: 100 to 1000 nM | inhibition at 0.1111 µM (read-out: Average % inhibition at 111.1 nM): 5.6%

CC[C@@H](c1ccc(Br)cc1)N1CC[C@](CC(O)CO)(c2ccc(F)cc2)OC1=O (single isomer, unassigned) [EXAMPLE 255 Isomer 1]
IC50: < 100 nM | inhibition at 0.1 µM (100 nM compound): 92.5%

C=CC[C@]1(c2ccc(F)cc2)CCN([C@@H](C)c2ccc(C(=O)NC)cc2)C(=O)O1 [EXAMPLE 155, 4-((S)-1-((R)-6-allyl-6-(4-fluorophenyl)-2-oxo-1,3-oxazinan-3-yl)ethyl)-N-methylbenzamide]
IC50: 100 to 1000 nM | inhibition at 0.1111 µM [1]: 45.6%
